The record followed here is patent publication US20050267050A1, “Compositions and methods for treating mdma-induced toxicity” (YEDA RESEARCH AND DEVELOPMENT CO. LTD., priority 2002, published 2005).

The test relates to MDMA acute toxicity in mice. Description: Protective activity against MDMA acute toxicity (survival) in mice. Format: in vivo, C57B1/6J mice. Particulars: inhibitor i.p. 5-120 minutes before toxic dose of MDMA; FIG. 6A. On the procedure:
Next step was to determine whether compounds blocking the enhanced expression of GABA transporters may restraint MDMA-induced hyperthermia. We ran trials to determine whether the mortality levels causes by MDMA administration would be affected by treatment with suspected GABA transporter inhibiting compounds Tiagabine, nipecotic acid derivative NO-711, and Vigabatrin which have been used hitherto as anti-epileptics.
Mice were administered dose(s) of mg/ml of MDMA according to the following schedule and were […] injected with a dose of the GABA transporter blocker. In the first set of experiments the effective toxic dose of MDMA was determined. C57B1/6J mice, 2-3 months old, 6 mice in each group, were tested with different concentration of the drug, prepared in saline and injected intraperitoneally. Saline solution was used as a control. The lowest concentration of the drug causing 100% death within 60 minutes was used in the following experiments. Mice (8 in each group) were injected (i.p.) with different concentrations of the tested GABA transporter inhibitor, or other compound, and 5-120 minutes later were injected with the toxic dose of MDMA. […]

Molecules are shown by their SMILES.

As to `Cl.O=C(O)C1=CCCN(CCON=C(c2ccccc2)c2ccccc2)C1` [NO-711, 1-(2(((diphenylmethylene)imino)oxy)ethyl)-1,2,5,6-tetrahydro-3-pyridinecarboxylic acid hydrochloride], the “Survival of MDMA-treated mice” value is “significantly improved the survival”.

`Cc1ccsc1C(=CCCN1CCC[C@@H](C(=O)O)C1)c1sccc1C` [Tiagabine, (R)-1-[4,4-Bis(3-methyl-2-thienyl)-3-butenyl]-3-piperidinecarboxylic acid]: the “Survival of MDMA-treated mice” value is “significantly improved the survival”.
